Consider 90 compounds from a melting point compilation (Tetko et al.; mined from patent text by program, amines drawn as free bases though some values may be those of a salt).

One may read the melting point as the temperature, or range, at which the solid turns liquid.

Molecules are shown by their SMILES.

As for `Cn1ncc(C(=O)N2CC3(COC3)C2)c1C(=O)Nc1ccn2nc(N3CCOCC3)nc2c1`, the melting point was > 300 °C.

The compound `CCCCCCOc1ccc(C(=O)c2cccc(C(=O)O)c2)c(C)c1` displayed a melting point of 136 to 138 °C.

Compound `Cc1cccc(-c2nn(C)cc2-c2ccc(F)c(-c3ccc(S(C)(=O)=O)cc3)c2)n1` returned a melting point of 66 to 67 °C.

`CNC(=O)Nc1cccc(OC(=O)N(CCC#N)c2ccccc2)c1` had a melting point of 147 °C.

As for `O=C(O)c1ccc(CCCC2SCC(=O)N2CCC2(O)CCCC2)cc1` (stereo not given), the melting point was 149 to 150 °C.

Consider `O=c1[nH]cc(-c2ccnc(Cl)c2)n1-c1ccc(F)cc1`, for which the melting point stood at 270 °C.

`Nc1ccc(Nc2c(NCc3ccco3)cc(C(=O)O)cc2S(N)(=O)=O)cc1` registered a melting point of 232 °C.

With `CCCCCCCCSc1cc(SCCCCCCCC)c2ccc3c(SCCCCCCCC)cc(SCCCCCCCC)c4ccc1c2c43`, the melting point came to 110 °C.

In turn, `CCCCCCCCCCCc1nc(N)n[nH]1` displayed a melting point of 128 to 132 °C.

In turn, `O=c1c2ccccc2nc(CCc2c[nH]c3ccccc23)n1-c1ccccc1` showed a melting point of 193 to 194 °C.

`Cn1ncc2c1CCCc1cn[nH]c1-2` returned a melting point of 153 to 155 °C.

The compound `COc1cc(-n2c(=O)cc(C(F)(F)F)n(C)c2=O)c(F)cc1Br` had a melting point of 154 °C.

Take `O=c1ccc(S(=O)(=O)c2cc3ccc(F)cc3[nH]2)n[nH]1`: the melting point was > 250 °C.

As for `COC(=O)c1cc(SCc2ccccc2)c(Cc2ccccc2)c(S(N)(=O)=O)c1`, the melting point is 139 to 140 °C.

Take `CC(=O)c1cccc2c1OC1(CC1)C2=O`: the melting point is 114 to 115 °C.

`O=C(N[C@@H](Cc1ccccc1)C(=O)Oc1ccc([N+](=O)[O-])cc1)OCc1ccccc1` registered a melting point of 124 to 126 °C.

Turning to `Cc1cc(-c2cc(=O)c3cccnc3o2)ccc1O`, the melting point fell in the range of 300 to 302 °C.

In the case of `O=C(c1ccc(-c2ccc(Cl)cc2)cc1)C(O)O`, the melting point is 275 to 285 °C.

In the case of `Cc1ncc(CN2CC=C(/C=C/c3ccccc3)CC2)c(N)n1`, the melting point is 199 to 203 °C.

`CNS(=O)(=O)c1ccccc1Nc1nc(Nc2ccc3c(c2)CCN(S(C)(=O)=O)CC3)ncc1Cl` registered a melting point of 199 to 201 °C.

With `COc1cc(Nc2c(C#N)cnc3cc(C#CCCN4CCNCC4)c(OC)cc23)c(Cl)cc1Cl`, the melting point was 188 to 190 °C.

`CCOC(=O)CCN1CCN2c3ccccc3Cc3ccccc3C2C1` (stereo not given) registered a melting point of 159 to 160 °C.

For `CC(C)(C)OC(=O)NC[C@H]1CN(c2ccc3c(c2)CC(C(C)(C)C)N3C=O)C(=O)O1` (stereo not given in full), the melting point was 153 to 161 °C.

In turn, `Brc1ccc(C2=NOCCS2)cc1` yielded a melting point of 114 to 115 °C.

As for `COC(=O)c1ccccc1NC(=O)Cc1ccccc1OC`, the melting point lay in the range of 116 to 117 °C.

For the compound `CC1(N)CN(C(=O)Nc2ccc(C(F)(F)F)cc2)N=C1c1ccc(Cl)cc1` (stereo not given), the melting point was 165 to 167 °C.

In turn, `CN(C)S(=O)(=O)c1ccc(Oc2ccc(S(C)(=O)=O)cc2)cc1` returned a melting point of 128 to 130 °C.

Take `COc1cc(C=C(C#N)C(=O)NCCC(C)NC(=O)C(C#N)=Cc2cc(O)c(O)c(OC)c2)cc(O)c1O` (stereo not given): the melting point was > 300 °C.

For `CCCn1nc(-c2ccc(OC)cc2)c2cccc(-c3ccc(F)cc3)c21`, the melting point is 110 to 111 °C.

Compound `O=C(Nc1ccc(Cl)cc1)c1ccc2cccnc2c1O` came in with a melting point of 207 to 209 °C.

The compound `CN(C)c1cccc(C(=O)NCCc2c3n(c4ccccc24)C(=O)CCC3)c1` showed a melting point of 136 °C.

For the compound `N[C@@H](CCCCN=Cc1ccccc1)C(=O)O`, the melting point was 79 to 81 °C.

The compound `COC(c1cccc2nc3n(c12)CCCN3c1ccc(Cl)cc1Cl)C1CC1` (stereo not given) came in with a melting point of 118 to 119 °C.

In the case of `CC(C)=CCN1C(=O)c2ccccc2C1=O`, the melting point was in the range of 95 to 97 °C.

Compound `COC(=O)Nc1cn2c(S(=O)c3ccccc3)cccc2n1` (stereo not given) came in with a melting point of 249 to 251 °C.

As to `CS(=O)(=O)c1ccc(-c2oc(CCCC(=O)O)nc2-c2ccc(F)cc2)cc1`, the melting point fell in the range of 140 to 141 °C.

With `O=C(O)CCCCCCCCNC(=O)C1Cc2ccccc2N1S(=O)(=O)c1ccc(-c2cccc(C(F)(F)F)c2)cc1` (stereo not given), the melting point stood at 60 °C.

In turn, `COc1ccc(C(=O)C=Cc2cccc(N(C)C)c2)c(OC)c1OC` came in with a melting point of 87.2 to 87.9 °C.

Consider `CC(C)(C)OC(=O)NCC(=O)N1[C@@H](C(=O)OC(C)(C)C)C[C@H](S(=O)(=O)c2ccccc2)[C@H]1c1ccccc1F` (racemic), for which the melting point was 134 °C.

In the case of `COc1ccc(C(=O)Nc2cc(NC(=O)c3cccc(N4CCOCC4)c3)ccc2Cl)cc1OC`, the melting point is 148 °C.

Compound `CC1NC(=O)NN=C1c1ccc(N)c(Cl)c1` (stereo not given) showed a melting point of 229 to 231 °C.

With `CS(=O)c1ccc(-n2cnnn2)cc1` (stereo not given), the melting point was in the range of 175 to 176 °C.

As to `O=C(O)CN1C(=O)[C@@H](NC(CCc2ccccc2)C(=O)O)CSC1c1ccccc1` (stereo not given in full), the melting point lay within 132 to 138 °C.

`CC(C)CNC(=O)C=CC=CCCCCCCCOc1cccc(Cl)n1` had a melting point of 80 to 81 °C.

With `CCCOc1cc2c(cc1OC)C(c1ccc(OC)c(OC)c1)=NN=C(C)C2CC` (stereo not given), the melting point is 110 to 112 °C.

On to `CC(=O)Nc1cc2c(cc1Oc1ccc(F)cc1F)C(=O)CC2c1ccccc1` (stereo not given), for which the melting point came to 163 °C.

`O=C(Nc1cccc(Cl)c1)c1cc2ccccc2s1` showed a melting point of 179 °C.

In the case of `Cc1n[nH]c2cc(-c3nn(Cc4oc5ccccc5c(=O)c4-c4cccc(F)c4)c4ncnc(N)c34)ccc12`, the melting point lay in the range of 246 to 248 °C.

Compound `CC(=O)On1c(=O)c(=O)[nH]c2cc(C(F)(F)F)c(C#N)cc21` gave a melting point of 230 °C.

`Cc1cc(Cl)cc(C(=O)Nc2ccnc(Cl)c2)n1` gave a melting point of 221 °C.

Consider `O=C1c2ccc([N+](=O)[O-])cc2C(=O)N1c1ccc(C2(c3ccc(N4C(=O)c5ccc([N+](=O)[O-])cc5C4=O)cc3)c3ccccc3-c3ccccc32)cc1`, for which the melting point was 360 to 363 °C.

As for `Cc1cc(C=O)ccc1-c1ccc(O)cc1`, the melting point was in the range of 94 to 96 °C.

In turn, `CCOC(=O)C(C)(C(=O)OCC)C1CCCC(=O)C1` (stereo not given) had a melting point of 129 to 130 °C.

In turn, `O=[N+]([O-])c1ccc(Cl)cc1-c1nc2ccccc2o1` returned a melting point of 130 to 132 °C.

Compound `CSc1nc2cc(Cl)c(S(N)(=O)=O)cc2[nH]1` showed a melting point of 253 to 254 °C.

For the compound `Cc1nnc(C=Cc2ccccc2OCC(O)CNC(C)(C)C)s1` (stereo not given), the melting point is 110 to 112 °C.

Consider `CCCCCc1c(C(C)C)nc(C(C)C)c(CO)c1-c1ccc(OC)cc1`, for which the melting point was in the range of 47 to 49 °C.

As for `CCS(=O)(=O)ON=C(Cl)c1ccc(F)cc1`, the melting point lay within 39 to 41.5 °C.

For the compound `O=C(O)CCNC(=O)NCCCCC1CCSS1` (stereo not given), the melting point is 108 to 110 °C.

The compound `CCCCNCc1ccc2cc(OC)ccc2c1` came in with a melting point of 55 to 80 °C.

Compound `Nc1nc(N)c2cc(Cc3ccccc3Cl)ccc2n1` came in with a melting point of 220 to 222 °C.

In turn, `CC(=O)ON=c1c2nccc3cccc(c32)n2cccc12` showed a melting point of 177 to 179 °C.

Compound `Cc1[nH]c(C=O)c(C)c1-c1nc2ccc(C(=O)c3ccccc3)cc2[nH]1` showed a melting point of 253 to 255 °C.

Turning to `CSC1NC(=O)N(C(C)C)C(=O)N1C` (stereo not given), the melting point fell in the range of 73 to 75 °C.

For the compound `COc1ccc(O)cc1CCc1ccc2nc[nH]c(=O)c2c1`, the melting point lay in the range of 221 to 224 °C.

Turning to `Cc1cc(OC(F)F)ccc1NC(=O)c1cccc(N)c1C(=O)NC(C)C`, the melting point lay within 148 to 149 °C.

In the case of `O=C1N[C@H](Cc2ccc(C(F)(F)F)cc2)[C@H](c2ccc(Cl)nc2)O1` (racemic), the melting point was 176 to 177 °C.

In turn, `COCCCNc1nc(Cl)cc(Cl)n1` yielded a melting point of 48 °C.

`O=C1c2ccccc2C(=O)N1CCCn1ccnc1-c1ccccc1` registered a melting point of 109 to 110 °C.

`CN(C(=O)Nc1ccc(F)cc1F)c1cnc2ccc(Cl)cc2c1-c1ccccc1` registered a melting point of 200 to 201 °C.

`CCC(O)(CC)c1cc(Cl)ccc1O` had a melting point of 76 °C.

Take `COc1cc(Nc2nccc(-c3ccccc3)n2)cc(OC)c1OC`: the melting point amounted to 187 °C.

With `O=C1NC(=O)C2CC(SC3=CCC4C(=O)NC(=O)C4C3)=CCC12` (stereo not given), the melting point fell in the range of 204 to 208 °C.

As to `COCOCc1cccc(-c2ccc(C(=O)OC)cc2)c1`, the melting point lay in the range of 54 to 55 °C.

As to `COc1ccc(C2(CCN3CCC(C(=O)c4nc5ccccc5n4Cc4ccc(F)cc4)CC3)CCN(C(=O)c3cc(OC)c(OC)c(OC)c3)C2)cc1OC` (stereo not given), the melting point was in the range of 80 to 83 °C.

`CC1(C)CCN(C(=O)Nc2cccnc2)c2cc(C#N)ccc21` displayed a melting point of 183 to 185 °C.

As for `NOCc1ccn(C(c2ccccc2)(c2ccccc2)c2ccccc2)n1`, the melting point lay in the range of 105 to 110 °C.

For `COC(=O)c1cc2ccsc2s1`, the melting point fell in the range of 101 to 105 °C.

Compound `CON=C(C(=O)OC)c1cccs1` displayed a melting point of 106 °C.

Turning to `Cc1cc(CCc2cc(C)c(O)c(C)c2Br)c(Br)c(C)c1O`, the melting point was in the range of 191 to 194 °C.

With `COC(=O)CCCc1cc2nc(C(F)(F)F)ccc2[nH]1`, the melting point came out at 137 °C.

As for `O=C(/C=C/c1ccc(C(F)(F)F)cc1-c1ccncc1)Nc1ccc2[nH]ccc2c1`, the melting point was 229 to 234 °C.

As to `CCC(O)(c1ccccc1)c1cc(OC)c(OC)c(OC)c1` (stereo not given), the melting point was in the range of 123 to 124 °C.

The compound `Oc1ccc(-c2nn(-c3cc(F)ccc3F)c3cc(O)ccc23)c(O)c1` returned a melting point of 88 to 91 °C.

Regarding `N#Cc1cnc(NS(=O)(=O)c2cccc(Cl)c2Cl)c(OCc2cccnc2)n1`, the melting point fell in the range of 222 to 224 °C.

In turn, `COC(=O)C(OC)(OC)C(=O)Nc1ccc(Br)cc1C` had a melting point of 99 to 103 °C.

`CNC(=NC#N)Nc1ccc(Cl)nc1` displayed a melting point of 227 to 228 °C.

`CCOCCn1c(N2CCN(CC)CC2)nc2ccccc21` registered a melting point of 134 to 136 °C.

Consider `CC(=O)NC[C@H]1CN(c2ccc(C3=CN(C(=O)COC(C)=O)CCC3)c(F)c2)C(=O)O1`, for which the melting point is 146 to 148 °C.

In the case of `Nc1cc(Cl)cc(Cl)c1C(=O)NCC1CCCCC1`, the melting point lay in the range of 168 to 171 °C.
